Earlier results in US8093271B2, “Anti-acid pharmaceutical composition in powder form and process for making it” (Laboratorios Bago S.A., priority 2006, dated 2012).
Read-outs that look alike come from different tables or passages of the source.

Experiments:
[1] = in water

COc1ccc2[nH]c([S+]([O-])Cc3ncc(C)c(OC)c3C)nc2c1 (stereo not shown) [omeprazole]
half life ([1]; pH near 7): about 14 hours
half life ([1]; pH of 4): lower than 10 minutes
time by which absorption is completed (absorption in the small intestine): 3 to 6 h
time required to reach the intestine (fasting state): 20 to 30 min
